Drawing on a melting point compilation (Tetko et al.; mined from patent text by program, amines drawn as free bases though some values may be those of a salt), this text covers melting point for 89 compounds.

A word on the melting point: it is the temperature of the solid-liquid transition.

With `COC(=O)c1ccc(OCC2CC(=O)N(c3ccc(OCC(C)C)cc3)C2)cc1` (centres undefined), the melting point is 118 °C. With `Clc1ccccc1-c1ccc(-c2ccc(C3=CC=CNC3)cc2)n1CNc1ccccn1`, the melting point fell in the range of 163 to 166 °C. For `CCOC(=O)c1ncn2c1[C@@H]1CCN1C(=O)c1c(Cl)cccc1-2` the value was 184 to 185 °C.

For the compound `C#Cc1cc2c(=O)nc(CCCC)[nH]c2cc1F`, the melting point was 218 °C.

The compound `CCN(c1ccncc1)c1ccccc1C(=O)N1CCCCC1` displayed a melting point of 123 to 124 °C. Turning to `CC(=O)Nc1nc2cc(CN3CCN(C(c4ccccc4)c4ccccc4)CC3)ccc2n1C`, the melting point came out at 202 °C. As for `O=C1CCn2nc(-c3ccc(F)cc3)c(-c3ccncc3)c2N1`, the melting point is > 250 °C. Compound `Nc1cc(CC(=O)O)cc2c1NC(C(F)(F)F)CC2` (centres undefined) came in with a melting point of 180 to 181 °C. As for `NC(=O)C1(c2ccc(F)cc2)OC(=O)c2ccccc21` (centres undefined), the melting point was 170 to 173 °C. Regarding `COc1ccc2c(c1)OC[C@@H]1CCCN1C2=O`, the melting point fell in the range of 104 to 106 °C. Compound `N#Cc1ccc(N(N)Cc2ccc(Br)cc2)cc1` showed a melting point of 90 °C. For `Cc1cccc(-c2[nH]c(C(C)C)nc2-c2cccc(-c3ccc(NC(=O)C(C)(C)O)cc3)c2)n1` the value was 123 to 135 °C; for `Cc1ccc(C(=O)NC(NC(=S)Nc2ccc(F)cc2F)C(F)(F)F)cc1` (centres undefined), 202 to 204 °C; for `Cn1cc(-c2ccccc2)c(=O)c(-c2ccc([N+](=O)[O-])cc2)c1`, 212 to 214 °C.

As to `Cn1cc(C2=C(c3c4n(c5ccccc35)CCCC4)C(=O)OC2=O)c2ccccc21`, the melting point was 276 to 278 °C. Regarding `CCOCCn1cc(C2CCN(CCOc3cc(OC)ccc3C(=O)O)CC2)c2cccnc21`, the melting point lay within 106 to 108 °C. For `CCC(CC)c1nccc2c(CC(=O)O)cccc12` the value was 107 to 109 °C. On to `CCCCOc1nc(-c2ccco2)c2ncn(Cc3ccc(OC)cc3)c2n1`, for which the melting point was 113 °C. Regarding `CN(C)C(=O)COC(=O)c1cc(-c2ccccc2)c(=O)n2c1-c1ccccc1C2`, the melting point was in the range of 177 to 179 °C. Under `CCN(C)C(=O)NS(=O)(=O)c1ccccc1OC(Cl)=CCl` stands 179 to 180 °C. `Cc1cccc([N+](=O)[O-])c1Br`: the melting point was 36 to 41 °C. `Cc1nc2c(N)nc3ccccc3c2n1CC1(O)CCCC1` returned a melting point of 306 to 308 °C. Consider `CCOC(=O)c1cn(C2CC2)c2c(F)c(/C=C\c3cc(Cc4cnc(N)nc4N)cc(OC)c3OC)c(F)cc2c1=O`, for which the melting point is > 220 °C. For `CCOC(=O)c1ccc(N=C(Nc2ccc(C(=O)OCC)cc2)c2ccccc2Cl)cc1` the value was 98 to 108 °C; for `COc1cc(NCCCCCCN2C(=O)c3ccccc3C2=O)c2nccc(C)c2c1`, 84 to 85 °C; for `CC(C)(C)OC(=O)N[C@@H](CO)C(=O)NCCO`, 74 to 76 °C.

Turning to `COC(=O)[C@H]1NC(=O)[C@H]1NC(=O)Cc1cccs1` (relative stereo), the melting point lay in the range of 133 to 136 °C. For `COc1ccc(Cl)cc1N1CCN(CCCN2C(=O)c3ccccc3C2=O)CC1` the value was 131 to 133 °C.

`O=C(O)COc1ccc(-c2c3ccc(OCC(=O)O)cc3cc3sc4ccccc4c23)cc1`: the melting point lay in the range of 245 to 246 °C. The compound `NC(=O)N(O)CC#Cc1cccc(C2=N[C@H](c3ccccc3)CS2)c1` yielded a melting point of 155 to 157 °C.

In turn, `O=C(NOC(=O)c1ccccc1)OCc1ccccc1` yielded a melting point of 112 °C. Regarding `COc1cc(OC)nc(NC(=O)N=NS(=O)(=O)C2SCCCN2C)n1` (centres undefined), the melting point is 188 to 190 °C.

For `O=C(CCl)NCc1c(O)ccc2c1CCCC2=O`, the melting point lay within 196 to 199 °C. For `CC1(C)Oc2c([N+](=O)[O-])ccc(Cl)c2C1=O`, the melting point fell in the range of 167 to 168 °C. `CS(=O)c1cccc2c1CC(=O)N2C(N)=O` (centres undefined) yielded a melting point of 198 to 200 °C.

The compound `CC1(C)CCc2c(N3CCCC3)nc3sc4c(NCc5cncc6ccccc56)ncnc4c3c2C1` had a melting point of 276 to 277 °C. `Cc1ccc(Nc2nc(-c3ccccc3)c(-c3nc4ccccc4c(=O)n3-c3ccc(Cl)cc3)s2)cc1` had a melting point of 225 to 227 °C. Turning to `Cn1cccc1-c1nc2c(N[C@H]3[C@@H](C(N)=O)[C@@H]4C=C[C@H]3C4)c(Br)cnc2[nH]1`, the melting point was 293 to 295 °C. As to `CCc1nc(-c2ccc(OCCCN3CCOCC3)cc2)no1`, the melting point fell in the range of 52 to 53 °C. `Cn1cc(-c2cc3cccnc3[nH]2)c2ccc(C(=O)NC(CO)CO)cc21` yielded a melting point of 247 to 249 °C. For `C=CCN1CCC23CCCCC2C1Cc1ccc(O)cc13` (centres undefined) the value was 197 to 198 °C; for `CCCCCCCCCC(=O)Oc1ccc2cc(C(=N)N)ccc2c1`, 165 to 168 °C.

In the case of `CCCc1nc(C=NNC(=S)SC)c(C)[nH]1`, the melting point was 175 to 179 °C. The compound `CC(C)(C)C(=O)c1c[nH]c2ncc(N3C(=O)CCc4ccccc43)nc12` registered a melting point of 257 to 259 °C. For `CCCCOc1c(CNC(=O)OC(C)(C)C)n(CC(C)(C)C)c(=O)c2ccc(C=O)cc12` the value was 149 to 150 °C; for `Cc1c(C(=O)O)cnn1-c1nc(-c2ccc(C(F)(F)F)cc2)cs1`, 273 to 274 °C. For `Cc1cc(SC2=C(O)CC(CCc3ccc(O)cc3)(CCc3ccc(O)cc3)OC2=O)c(C(C)(C)C)cc1N` the value was 140 to 145 °C; for `CC(C)(C)N[C@@H]1Cc2cccc(O)c2C[C@H]1O` (relative stereo), 97 to 102 °C; for `CC#COc1cc(-n2c(=O)n3n(c2=S)COCC3)c(Cl)cc1Cl`, 188 to 190 °C. Under `C=C(C)COc1cc(C)c(NC(=O)CC(C)(C)C)c(C)c1Cc1ccc(C(C)C)cc1` stands 129 to 130 °C; under `CCCCCCCCCCOc1ccc(OCc2ccccc2)c(C(=O)N(CC(=O)O)CC(=O)O)c1`, 74 to 78 °C.

Turning to `O=C(NCCO)c1csc(C(=O)NCCO)n1`, the melting point is 155 to 158 °C. `COc1cccc(S(=O)(=O)N2CCc3cc(O)c(OC)cc3C2)c1` had a melting point of 168 to 170 °C. In the case of `CCOC(CC)c1ccc(Cl)c2nc3n(c12)CCCN3c1ccc(Cl)cc1Cl` (centres undefined), the melting point fell in the range of 108 to 110 °C. As for `NC(=O)c1cc(OCCNCC(O)c2ccc(OCc3ccccc3)cc2)ccc1O` (centres undefined), the melting point lay in the range of 160 to 162 °C. For `CC1=NC(NC(=O)Nc2cccc(C)c2)C(=O)N(CC(=O)N(CC(C)C)CC(C)C)c2c(C)cccc21` (centres undefined) the value was 227 to 228 °C.

Compound `COc1ccc(CNc2nnc(Cl)c3ccc([N+](=O)[O-])cc23)cc1Cl` displayed a melting point of 217 to 218 °C. For `Clc1nc(C(Cl)(Cl)Cl)nc2ccc(I)cc12` the value was 154 to 155 °C; for `CS(=O)(=O)CCOS(C)(=O)=O`, 55 to 57 °C. Regarding `C=C(CC)C(=O)c1ccc(OC2(C(=O)O)CCC2)c(Cl)c1Cl`, the melting point stood at 120 °C. `N#Cc1nn(-c2c(Cl)cc(C(F)(F)F)cc2Cl)cc1C(=O)C(F)(F)C(F)(F)F` returned a melting point of 120 °C. For `O=C1Nc2c(Br)cncc2C1(Br)Br` the value was 250 °C; for `Cc1cccc(C)c1NC(C)CN(C)C=O` (centres undefined), 69.5 to 72 °C; for `COc1cc2c(cc1F)C1(CO2)C(=O)N(Cc2ccccc2)c2ccccc21` (centres undefined), 160 to 162 °C. The compound `NS(=O)(=O)c1cccnc1N1CCSCC1` had a melting point of 176 to 177 °C. `CC(=O)NC[C@H]1CN(c2ccc(N3CCC4(CC3)CSCO4)c(F)c2)C(=O)O1` registered a melting point of 114 to 116 °C.

`COc1ccnc(CCc2nc3c(C)ccnc3[nH]2)c1` had a melting point of 143 to 144 °C. In turn, `Cc1nc(Nc2ccccc2)sc1-c1ccnc(Nc2ccc(N3CCOCC3)cc2)n1` showed a melting point of 290 to 291 °C. For the compound `COc1ccc(-n2cnc3ccc(C(=O)NN)cc32)cc1`, the melting point was 196 to 197 °C. Under `COC(=S)N(C)C[C@@H]1CN(c2cc(F)c(N3CC(=O)N(C)C3)c(F)c2)C(=O)O1` stands 130 °C. In turn, `Nc1nc2ccccc2n1CCCN1CCCCC1` gave a melting point of 179 to 181 °C. In turn, `O=C1NCC2(CCN(CC(O)COc3cccc4ccccc34)CC2)O1` (centres undefined) came in with a melting point of 137 to 140 °C. `CCc1cc2c(s1)-n1nnnc1CN=C2c1ccccc1Cl` registered a melting point of 135 to 136 °C. Regarding `COc1cc2c(cc1O)CCC1C3=CCC(O)C3(C)CCC21` (centres undefined), the melting point is 169 to 171 °C.

Take `CCOC(=O)c1ccc(NC(=O)c2cccnc2)cc1`: the melting point lay within 125 to 127 °C. For `O=C(CCCc1ccccc1)NCc1ccc(C(=O)O)cc1`, the melting point fell in the range of 178 to 179 °C. `O=c1[nH]c2cc(OCC(O)CN3CCOCC3)ccc2c2oc3ccccc3c12` (centres undefined) had a melting point of 228 to 230 °C. Compound `CON=C(c1ccccc1)c1ccc2c(c1)NC(=O)CO2` came in with a melting point of 147 to 149 °C. Compound `Cc1ccccc1-c1ncc(NC(=O)OCc2ccccc2)c(=O)n1CC(=O)NC(Cc1ccccc1)C(=O)C(F)(F)F` (centres undefined) registered a melting point of 127 to 129 °C. The compound `CSc1c(C#N)nn(-c2c(Br)cc(C(F)(F)F)cc2Br)c1N` had a melting point of 211 to 214 °C. With `N#C/C=C1\CCCCC1n1nc(-c2c(-c3ccccc3)nn3ccccc23)ccc1=O` (centres undefined), the melting point was in the range of 70 to 72 °C. For `O=C(NCCCCn1ccnc1)c1ccco1` the value was 88 to 90 °C; for `Cc1sc(N2C(=O)OCC2(C)C)nc1-c1ccc(Br)cc1`, 175 to 176 °C; for `COc1ccc(C(C)C)cc1-c1cc(-c2nnnn2CCc2ccccc2)c(OCc2ccccc2)cc1OCc1ccccc1`, 118 to 120 °C.

In turn, `C=CCc1cc(-c2nc(C)no2)ccc1O` had a melting point of 135 to 137 °C.

With `O=c1[nH]c2ccccc2c(-c2ccccc2)c1-c1csc(-c2ccncc2)n1`, the melting point is > 250 °C. For the compound `CC(=O)c1ccc(-c2ccccc2NC(=N)N(C)C)cc1`, the melting point was 174 to 175 °C. Regarding `O=C(O)C1=Cc2cc(Cl)c(Oc3cccnc3Cl)cc2OC1C(F)(F)F` (centres undefined), the melting point was in the range of 213 to 216 °C. Under `Cn1cc(C(=O)O)c(=O)c2oc3ccc(Cl)cc3c(=O)c21` stands 295 to 297 °C.
